Data published in patent US20260259232A1, “A METHOD” (OWLSTONE MEDICAL LIMITED, priority 2022, published 2026).

Assay: Breath analysis by SIFT-MS before and after ingestion of 75 g glucose in healthy subjects
Assay type: in vivo, human
Conditions: for Cmax (maximum levels) in breath, interquartile range (IQR) / Cmax (maximum levels) in breath, median (M): breath sampled every 5 minutes for 90 minutes
[1] = 10 healthy subjects fasted overnight, after 75 grams of glucose in 300 ml of water

Procedure: A total of 10 healthy subjects were recruited and instructed to fast overnight and avoid drinking alcohol the day before the experiment. Breath was analysed using selected ion flow tube mass spectrometry (SIFT-MS). […] Afterwards, 75 grams of glucose dissolved in 300 ml of water were ingested, and 3 consecutive breath samples were provided every 5 minutes for 90 minutes. Measured compounds were expressed as part per billion volume/volume (PPB) and plotted as a function of time. Ambient samples were collected before and after the procedure.
The subjects were asked to fast overnight and not drink alcohol the day before the experiment.
A total of 75 g of glucose from Bulk (https://www.bulk.com/uk/dextrose.html?view=ppc&pid=2378&gclid=CjwKCAjw-vmkBhBMEiwAlrMeF2SOAMhqgNq65EV8YC2XWu63e4ByfJckgwv5jKZfzCA6BbIB24sLSBoC—kQAvD_BwE) was weighted in a glass and 300 ml of water was added and mixed until the full amount was dissolved. A total of 6 blank samples were collected and analysed before and after the procedure. The subjects provided breath samples before and every 5 minutes over 90 minutes after glucose ingestion. Each timepoint was represented by a 15 second breath exhalation consecutively repeated 3 times ed o and averaged for every timepoint. Breath samples were directly sampled for Selected-ion flow-tube mass spectrometry (SIFT-MS). Subjects exhaled into a single use Mouthpiece and Reservoir Tube (PO007257 Imspex) that were replaced for each timepoint collection.
Scans were performed in batch mode; data were collected in single ion mode (SIM). SIM scan was 50 secs long.

| SMILES | Tmax (time to maximum level) in breath, interquartile range (IQR) [1] | Tmax (time to maximum level) in breath, median (M) [1] | Cmax (maximum levels) in breath, interquartile range (IQR) [1] | Cmax (maximum levels) in breath, median (M) [1] | Time for breath levels to return to baseline (after glucose administration, all investigated subjects) | Return of breath levels to baseline (in words) (after glucose administration, investigated timeframe 90 minutes) |
| --- | --- | --- | --- | --- | --- | --- |
| CC(=O)C(C)O (centres unmarked) [acetoin] | 10 to 15 min | 10 min | 4-8.8 PPB | 7 PPB | ≤ 50 min |  |
| CCO [ethanol] |  |  | 303-593 PPB | 400 PPB |  | returned to baseline at the end of the investigated timeframe for all but 1 subject |
